Results taken from patent US20090252816A1, “Inhalable Gaseous Medicament Based On Xenon And Nitrous Oxide” (AIR LIQUIDE SANTE (INRTERNATIONAL), priority 2003, published 2009).

How the values were obtained:
[1] = test system: dopamine release in the nucleus accumbens septi; assay: dopamine release in slices of nucleus accumbens septi by differential pulse voltammetry; format: cell-based, rat
Description: In addition, the preparation of the slices of nucleus accumbens septi was performed as follows. The animals were decapitated under mild anesthesia with halothane and the brain was then rapidly removed. Frontal sections of 300 μm, corresponding to an anteriority of +0.70/1.20 mm (according to Bregma, Paxinos and Watson, 1998) were taken using a chopper (Mickie Laboratory Engineering Company, Gomshall, Surrey, UK). The brain slices were placed for recovery in a buffered saline solution with a temperature of 3-4° C. for at least 1 hour before use for neurochemical study.
The measurement of the dopamine release was performed by the technique of normal differential pulse voltammetry using a single-fiber carbon electrode 10 μm in diameter and 250 μm long (CFN10-250; World Precision Instruments, Aston, Stevenage, Hertfordshire, UK). The electrochemical treatment enabling this type of electrode to be made sensitive to dopamine consisted in applying a continuous current of −1.5 V into a phosphate-buffered saline solution for 20 seconds, followed by a triangular current of +2.6 V also for 20 seconds on the working electrode (Brazell et al., 1987). Under these conditions, the dopaminergic signal appears at a potential of +100 mV.
The rat brain slices were then placed in an organ tank and infused with artificial cerebrospinal fluid having the composition: NaCl 118 mM, MgCl2 1.18 mM, KCl 4.9 mM, NaH2PO4 1.25 mM, CaCl2 1.25 mM, NaHCO3 3.6 mM, d-glucose 10 mM, HEPES 30 mM, pH 7.4, the temperature of which was maintained at 34±1° C. using a temperature controller (Delta 4 Culture Dish Controller, Bioptechs, Butler, Pa., USA). The electrode was placed under microscopic control (microscope EFN 600, Nikon, Paris, France), 100 μm from the anterior commissure, using an optical micrometer incorporated into the microscope, and then fully descended into the nucleus accumbens septi, at an angle of 45°, and connected to the Biopulse polarograph set in normal differential pulse voltammetry mode with the following parameters: scanning potential −150+350 mV; scanning time 0.4 s, scanning amplitude 4 mV, for a scanning speed of 10 mV.s^−1, 40 ms measuring pulse; 70 ms measuring prepulse; 30 mV measuring amplitude.
The dopaminergic hyperstimulation was induced by adding d-amphetamine to the infusion liquid. Medical air, nitrous oxide or xenon was dissolved, to saturation, before use in the infusion liquid, the pH of which was readjusted to 7.4.

[2] = test system: sensitization to d-amphetamine; assay: d-amphetamine sensitization protocol, locomotor activity in actimetry cages; format: in vivo, rat; conditions: for blocking of the sensitization process (locomotor activity in d-amphetamine test on D7): remainder oxygen, 3 h after each d-amphetamine injection D1-D3; for concentration necessary to block the sensitization process: d-amphetamine sensitization
Description: Male Sprague-Dawley rats weighing about 250 g were used in the experiments.
(§1) 15 groups of animals (of 7 or 8 animals each) were used, including 10 groups during the actual sensitization studies and 5 other groups during the histological studies of the neurons of the posterior and retrosplenial cingulate cortices.
The animals were injected intraperitoneally (i.p.) for 3 consecutive days from D1 to D3 with d-amphetamine (Amph; 1 mg/ml/kg) or, depending on the case, with a saline solution (1 ml/kg) for the control animals.
After each injection, the rats were immediately placed for 3 hours in a closed chamber, 100 liters in volume, flushed in dynamic regime with a constant flow rate of 5 l.min^−1, either with air (group 1: saline; group 2: Amph), or with 50% by volume of nitrous oxide (group 3: saline; group 4: Amph) or 75% (group 5: saline; group 6: Amph), or with 50% by volume of xenon (group 7: saline; group 8: Amph) or 75% (group 9: saline, group 10: Amph); the rest of the mixtures (remainder to 100%) being oxygen.
The locomotor activity of the animals of groups 1 to 10 was evaluated on D6, after an i.p. injection of a saline solution (1 ml/kg), and on D7 after an i.p. injection of d-amphetamine (1 mg/ml/kg). The locomotor activity of the animals in response to these injections was recorded using actimetry cages with photoelectric cells (Imétronic, Pessac. France).
The results obtained, given in the attached FIGS. 1 and 2, are expressed as the mean±standard error. The comparison of the groups was performed by means of nonparametric tests: Kruskall-Wallis analysis of variance, followed in the event of a significant result by the Mann-Whitney U test.

weaning from alcohol = conditions: Lichtigfeld and Gillman 1989; cited from earlier work
[3] = test system: posterior and retrosplenial cingulate cortices; assay: histological study of neurons of the posterior and retrosplenial cingulate cortices after repeated gas exposure; format: in vivo, rat; conditions: for histological findings in posterior and retrosplenial cingulate cortices (neurotoxic effect): repeated exposure for 3 consecutive days
Description: as §1
In order to identify the possible neurotoxic potential of repeated exposure (3 hours per day […]) to nitrous oxide or to xenon on the posterior and retrosplenial cingulate cortices, 5 additional groups of animals were pretreated, according to a protocol identical to that defined above, by administration of a saline solution, and then exposed either to air (group 11) or to 50% or 75% nitrous oxide (groups 12 and 13) or to 50% or 75% xenon (groups 14 and 15).
To do this, after treatment, the animals were sacrificed on D8 by decapitation under general anesthesia with halothane, and the cranium was then immediately placed in a paraformaldehyde solution for one week. The brain was removed, coated with paraffin and sectioned into frontal slices of 4 μm mounted on gelatinized slides and stained with a hemalun-eosin-saffron solution. The posterior and retrosplenial cingulate cortices were analyzed using an optical microscope (×400).

[4] = test system: glutamatergic receptors of AMPA type; conditions: Yakamura and Harris, 2000; cited from earlier work
[5] = test system: N-methyl-D-aspartate glutamatergic receptors; conditions: in vitro; Franks et al. 1998, Jevtovic-Todorovic et al. 1998; cited from earlier work
[6] = toxicity threshold of xenon stated for man; conditions: in man
[7] = gas at 50 vol % or 75 vol % (summary statement)

| SMILES | dopamine signal relative to the measured basal signal ([1]; d-amphetamine at 10^-5 M in infusion liquid) | locomotor activity in d-amphetamine test on D7, animals pretreated with d-amphetamine versus saline ([2]; d-amphetamine 1 mg/ml/kg i.p. D1-D3, air) | effect on weaning from alcohol (weaning from alcohol) | histological findings in posterior and retrosplenial cingulate cortices (neurotoxic effect) ([3]; gas at 75 vol %) | increase in dopamine release induced with d-amphetamine [1, 7] | increase in dopamine release induced with d-amphetamine ([1]; gas at 75% by volume in the infusion liquid, d-amphetamine 10^-5 M) | effect on glutamatergic receptors of AMPA type [4] | antagonist affinity for NMDA receptors [5] | locomotor activity in response to the saline test on D6 (long-term sedative effect) ([2]; gas at 50 vol % or 75 vol %, rats) | blocking of the sensitization process (locomotor activity in d-amphetamine test on D7) ([2]; gas at 50 vol %, rats) | blocking of the sensitization process (locomotor activity in d-amphetamine test on D7) ([2]; gas at 75 vol %, rats) | concentration necessary to block the sensitization process ([2]; rats) [vol %] | gas effect on acute d-amphetamine test at D7 in rats pretreated with saline solution ([2]; saline-pretreated rats, nitrous oxide exposure D1-D3) | histological findings in posterior and retrosplenial cingulate cortices (neurotoxic effect) ([3]; gas at 50 vol %) | toxicity threshold ([3]; in rats) | increase in dopamine release induced with d-amphetamine ([1]; gas at 50% by volume in the infusion liquid, d-amphetamine 10^-5 M) | response to d-amphetamine on D7 in animals pretreated with saline solution ([2]; gas at 75 vol %, versus air or xenon at 50 vol %) | toxicity threshold [6] |
| --- | --- | --- | --- | --- | --- | --- | --- | --- | --- | --- | --- | --- | --- | --- | --- | --- | --- | --- |
| C[C@H](N)Cc1ccccc1.C[C@H](N)Cc1ccccc1.O=S(=O)(O)O [d-amphetamine, d-amphetamine sulfate] | significant increase | significantly higher |  |  |  |  |  |  |  |  |  |  |  |  |  |  |  |  |
| [N-]=[N+]=O [nitrous oxide] |  |  | slightly better than the placebo effect | No similar effect | block the increase | significantly reduced | no effect | low affinity | no significant difference | partial blocking | significant blocking | 75 | no “gas” effect |  |  |  |  |  |
| [Xe] [xenon] |  |  |  | generalized cytoplasmic clarification | block the increase |  | no effect | low affinity |  | blocking of the sensitization | blocking of the sensitization | 50 |  | No similar effect | about 75% | significantly reduced | significant increase | about 60% |
